The record followed here is patent US8299237B2, “Nucleic acid sequences comprising NF-κB binding site within O(6)-methylguanine-DNA-methyltransferase (MGMT) promoter region and uses thereof for the treatment of cancer and immune-related disorders” (Hadasit Medical Research Services & Development Ltd., priority 2007, dated 2012).

“Also recorded” adds a separate entry of the source.

Data set [1] concerns glioma cell lines A172, U87MG and T98G. Kind of data set: BCNU crystal violet viability test in glioma cell lines. In kind it is cell-based. Particulars: BCNU 5-80 μg/ml, 2 hrs; viability 48 hrs later; p<0.001. As for the experimental part:
(§1) Various glioma cell lines (A172, U87MG, and T98G) or HEK293 were transiently transfected with different plasmids as indicated above. For the BG-treated groups, BG (Benzyl Guanine, an MGMT inhibitor) was added to the cell medium 4-6 hrs after transfection at a final concentration of 80 μM and incubated with the cells for the duration of the experiment. At 24 hrs following transfection, the cells were exposed for 2 hrs to increasing concentrations of BCNU (as indicated), which is a β-chloro-nitrosourea compound used as an alkylating agent in chemotherapy. The cells were fixed 48 hrs later with 4% paraformaldehyde for 20 min at room temperature, and washed twice with PBS. A 400 μl volume of 0.5% crystal violet in dH2O was added and the cells were stained for 15 min on a vibrator at 300 rpm. The dye was aspirated, the wells rinsed with dH2O, and the plate was allowed to dry in the hood. For destaining, 400 μl of 10% acetic acid were added to each well and the cells were incubated for 15 min on a vibrator at 300 rpm. The optical density (OD590) of the de-stained solution in each well was read and recorded.
(§2) To determine whether this also results in induction of cellular resistance to alkylating agents, the sensitivity of the three glioma cell lines to increasing quantities of BCNU (5-80 μg/ml), was next compared. […]

The test system of another data set is HEK293 cells. Nature of the data set: BG and BCNU treatment, crystal violet viability test in transfected HEK293. In kind it is cell-based, human. The settings on record: BG 80 μM added 4-6 hrs after transfection; control and p65 transfected HEK293; BCNU 20-80 μg/ml 2 hrs. As for the experimental part:
as §1, §2

The subject of data set [2] is canonical NF-κB binding site from HIV (HIV-κB-Luc construct). Kind of data set: Luciferase reporter assay, HIV-κB-Luc construct induced by p65. In kind it is cell-based, human. The settings on record: 150 nm LMODN. As for the experimental part: Transient transfections were performed in 6-well plates, using the FuGene6 transfection reagent (Roche Diagnostics GmbH, Mannheim, Germany), according to the manufacturer's instructions. U87MG, T98G, and A172 cells were transfected with pNF-κB-Luc reporter Vector (Clontech, Palo Alto, Calif.), while RG2 and U87MG were transfected with MGMT-Luc [construct p-954/+24 mL [Biswas T. et al. Oncogene 18:525-32 (1999)] kindly provided by Sankar Mitra] (1 μg/well). CMVβ-galactosidase expression vector (CMVβgal-Clonthech) was included (0.1 μg/well) in each transfection to normalize transfection efficiency. HEK293 cells were transfected with CMVβgal alone or along with one or more of the following plasmids: CMVp65, CMVΔNIκB, CMVp50, CMVcJun. CMVp65 and CMVΔNIκB plasmids were kindly provided by Prof. Yinon. Ben-Neriah (The Hebrew University, Jerusalem, Israel), CMVp50 and CMVcJun were kindly provided by Dr. Danielle Melloul (Hadassah Hebrew University Medical Center, Jerusalem, Israel). […]
Induction of over expression of NF-κB in HEK 293T cells by transfection of a CMV-NF-κB/p65 generated a 50-fold elevation in luciferase expression driven by the Co-transfected reporter construct MGMT-kB1-Luc. […] No inhibition was detected when a mutant LMODN was introduced into the cells, indicating the specificity of MGMT-kB1-LMODN (of SEQ ID NO. 40 and 41). […]

Data set [3] relates to T98MG gliomas cell line. In kind it is cell-based, human. As for the experimental part:
(§3) T98MG glioma cell line cells were treated with increasing doses of the decoy ODN's of the invention. Double stranded ODNs (30mers), corresponding to MGMT-κB1 binding site (as also denoted by SEQ. ID. NO. 1), and control ODNs were purchased from IDT. Each strand of ODN was thirty-mers and contained six LNA nucleotides. The following ODNs were used: MGMT-kB1forward: 5′---+T+AATGGGG+ACTTTAC GGG+[…]+A+T---3′ (as also denoted by SEQ. ID. NO. 40) with or without the 5′ end labeled with carboxyfluorescein-5-succimidyl ester (FAM). The MGMT-kB1 reverse ODN: 5′---+A+TTCTGTA+[…]+[…]+T+A---3′ as also denoted by SEQ ID NO. 41). Control forward: 5′---+T+AG TGT CG+A CTT CAC TCT+ACT TGA CAG A+A+T---3′ (as also denoted by SEQ ID NO. 42), control reverse: 5′---+A+TT CTG TC+A AGT AGA GTG+AAG TCG ACA C+T+A---3′ as also denoted by SEQ ID NO. 43). It should be noted that (+designated as nucleotide containing an LNA modification).
The viability of the cells was tested 24-48 hrs later by CellTiter-Blue assay (Promega®). The assay was carried out according to the supplier's instructions. Briefly, the assay is based on the ability of living cells to convert a redox dye (resazurin) into a fluorescent end product (resorufin). Cell viability estimation is done by measuring the fluorescent intensity of resorufin (ex. 560 nm, em. 590 nm) using a fluorescent microplate reader.
The inventors next tested the potential of the decoy LMODN molecules of the invention to sensitize tumor cells to alkylating agents and thereby improve their efficacy as anti-cancerous treatment. Therefore, several human cancer cell lines were treated with alkylating agents with increasing doses of MGMT-kB1-ODN followed by cell viability tests. First, the sensitivity of each cell line to several alkylating agents, mainly temozolomide (TMZ) and BCNU was calibrated. At 24 hrs following sowing, cells were exposed for two hours to increasing concentrations of the alkylating agent and viability of the cells was tested 24-48 hrs later by CellTiter-Blue assay (Promega®). To test the potential of MGMT-kB1-LMODN to sensitize tumor cells to alkylating agents in-vitro, increasing doses of LMODNs MGMT-kB1 forward and reverse as denoted by SEQ ID NO. 40 and 41, respectively), with or without the 5′ end labeled with carboxyfluorescein-5-succimidyl ester (FAM), as well as the control LMODNs (as denoted by SEQ ID NO. 42 and 43), were liposomally introduced (Lipofectamine 2000, Invitrogen) to various tumor cancer cells. Twenty four hours later, cells were treated with the different doses of alkylating agents as calibrated before.
FIG. 9 represents an example of T98MG gliomas cell line sensitized to alkylating agents in response to treatment with the LMODN's of the invention. […]

Data set [4] deals with MGMT-kB1-Luc reporter construct induced by NF-κB/p65. Kind of data set: Luciferase reporter assay, MGMT-kB1-Luc co-transfected with NF-κB/p65. Particulars: for effect on luciferase activity driven by MGMT-kB1 reporter (in words): HEK293T co-transfected with MGMT-kB1 reporter and NF-κB/p65. The format is cell-based, human. As for the experimental part: Transient transfections were performed in 6-well plates, using the FuGene6 transfection reagent (Roche Diagnostics GmbH, Mannheim, Germany), according to the manufacturer's instructions. U87MG, T98G, and A172 cells were transfected with pNF-κB-Luc reporter Vector (Clontech, Palo Alto, Calif.), while RG2 and U87MG were transfected with MGMT-Luc [construct p-954/+24 mL [Biswas T. et al. Oncogene 18:525-32 (1999)] kindly provided by Sankar Mitra] (1 μg/well). CMVβ-galactosidase expression vector (CMVβgal-Clonthech) was included (0.1 μg/well) in each transfection to normalize transfection efficiency. HEK293 cells were transfected with CMVβgal alone or along with one or more of the following plasmids: CMVp65, CMVΔNIκB, CMVp50, CMVcJun. CMVp65 and CMVΔNIκB plasmids were kindly provided by Prof. Yinon. Ben-Neriah (The Hebrew University, Jerusalem, Israel), CMVp50 and CMVcJun were kindly provided by Dr. Danielle Melloul (Hadassah Hebrew University Medical Center, Jerusalem, Israel).
At 24 hrs following transfection, the cells were lysed for 15 min on ice with 200 μl of luciferase lysis buffer (Promega, Madison, Wis.). Luciferase assays were carried out using a Promega assay kit and a luminometer (EG&G Berthold, Bad Wildbad, Germany). The activity was normalized to β-galactosidase activity (Promega) and plotted as the mean±s.d. of triplicates from a representative experiment.
For the cloning of the MGMT-luc constructs the reporter vector p-TA-Luc (Clontech, Palo Alto, USA) was used. The plasmid contains TATA box motif upstream to a luciferase reporter gene. A double stranded DNA corresponding to four repeats of each sequence as indicated by FIG. 8A (also denoted by SEQ ID NO. 44, 45, 46 and 47), was synthesis by syntezza LTD and ligated upstream to the TATA box.
To test the activity of these sites, several luciferase reporter genes bearing four copies of either intact or mutant sequence, of each of the two NF-κB sites (NF-κB1 and NF-κB2), were constructed as indicated in Experimental procedures. […] An inhibition of approximately 50% was observed using 100 nM ODN. Negative control using the CMVΔNIκB (ΔN)-Luc construct as well as positive control using the canonical HIV-κB-Luc reporter construct, confirmed validity of the data.
Induction of over expression of NF-κB in HEK 293T cells by transfection of a CMV-NF-κB/p65 generated a 50-fold elevation in luciferase expression driven by the Co-transfected reporter construct MGMT-kB1-Luc. […] Inhibition of approximately 90% was induced by 150 nM LMODN. […] No inhibition was detected when a mutant LMODN was introduced into the cells, indicating the specificity of MGMT-kB1-LMODN (of SEQ ID NO. 40 and 41). […] 3 (HIV-κB-Luc construct).

Data set [5] relates to T98MG gliomas cell line. The format is cell-based, human. The settings on record: corresponding concentrations, 48 hours. As to the method:
as §3
The viability of the cells was tested 24-48 hrs later by CellTiter-Blue assay (Promega®). The assay was carried out according to the supplier's instructions. Briefly, the assay is based on the ability of living cells to convert a redox dye (resazurin) into a fluorescent end product (resorufin). Cell viability estimation is done by measuring the fluorescent intensity of resorufin (ex. 560 nm, em. 590 nm) using a fluorescent microplate reader. […]

On to `O=NN(CCCl)C(=O)NCCCl` [BCNU, 1,3-bis(2-chloroethyl)-1-nitrosourea], for which the “resistance of T98G to BCNU compared with A172 and U87MG (in words)” value in data set [1] is reported as “more resistant”.

Regarding `Nc1nc(OCc2ccccc2)c2nc[nH]c2n1` [BG, O6-Benzylguanine], in the data set on HEK293 cells, the “effect of BG on sensitivity to BCNU (in words)” value is “augmented the cell sensitivity to BCNU; also recorded: completely abrogated the p65-induced chemoresistance”.

With “MGMT-kB1-LMODN: double stranded 30-mer LNA modified decoy ODN of MGMT-κB1 site; forward SEQ ID NO. 40, reverse SEQ ID NO. 41 (sense TAATGGGGACTTTACGGGACTTTACAGAAT; antisense ATTCTGTAAAGTCCCGTAAAGTCCCCATTA; LNA modified, positions not given here; listed as Homo sapiens) [double stranded 30-mer LNA modified decoy ODN of MGMT-κB1 site; 41]”, the “inhibition of p65-induced luciferase expression” value in data set [2] was determined as 57%. Also, the “toxicity to cells, viability of cells treated only with the LMODN” value in the data set on T98MG gliomas cell line [3] is given as “not toxic to the cells”. Further, the live cells in the data set on T98MG gliomas cell line [3] (2.5 mM TMZ with 2 nm LMODN) is reported as 22%. In data set [4] (150 nM LMODN, liposomal, HEK 293T, MGMT-kB1-Luc + NFκB/p65 (FIG. 8)), the “inhibition of luciferase activity” value is listed as “approximately 90%”. Further, the “effect on luciferase activity driven by MGMT-kB1 reporter (in words)” value in data set [4] was “inhibited the luciferase activity in a dose-dependent manner”. The “inhibitory activity relative to NF-κB super repressor ΔNI-κB” value in data set [4] (LMODN at 150 nM) is on record as “two fold greater”.

On to “mMGMT-kB1-LMODN: mutant control LNA modified ODN; control forward SEQ ID NO. 42, control reverse SEQ ID NO. 43 (sense TAGTGTCGACTTCACTCTACTTGACAGAAT; antisense ATTCTGTCAAGTAGAGTGAAGTCGACACTA; LNA modified, positions not given here; listed as Homo sapiens) [mutant control LNA modified ODN; 43]”, for which the “effect on cell survival (in words)” value in the data set on T98MG gliomas cell line [5] is “no reduction in cell survival”. Besides, the “additive effect with TMZ (in words)” value in the data set with T98MG gliomas cell line [3] (2.5 mM TMZ with mutant LMODN (FIG. 9)) is recorded as “no any additive effect”. For the same compound, the “effect on luciferase activity driven by MGMT-kB1 reporter (in words)” value in data set [4] was “No inhibition”.
